Key:
human sebocytes = test: Inhibition of sebocyte lipogenesis (14C-acetate incorporation); format: cell-based; conditions: 0.00035%; 14C-acetate label in sebocytes, 20 h + 4 h incubation
Procedure: Secondary cultures of human sebocytes obtained from an adult […] were grown in 48-well tissue culture plates (Costar Corp.; Cambridge, Mass.) until confluent. Sebocyte growth medium consisted of Clonetics Keratinocyte Basal Medium (KBM) supplemented with 14 μg/ml bovine pituitary extract, 0.4 μg/ml hydrocortisone, 5 μg/ml insulin, 10 ng/ml epidermal growth factor, 1.2×10^−10 M cholera toxin, 100 units/ml penicillin, and 100 μg/ml streptomycin. All cultures were incubated at 37° C. in the presence of 7.5% CO2. Medium was changed three times per week.
On the day of experimentation, the growth medium was removed and the sebocytes washed three times with sterile Dulbecco's Modified Eagle Medium (DMEM; phenol red free). Fresh DMEM was added to each sample (triplicates) with 5 μL of gum mastic solubilized in ethanol. Controls consisted of addition of ethanol alone to phenol red. Each plate was returned to the incubator for 20 hours followed by the addition of ^14C-acetate buffer (5 mM final concentration, 56 mCi/mmol specific activity). […] Radioactive label remaining in the sebocytes was harvested and counted using a Beckman scintillation counter. […]
Controls consisted of ethanol alone and phenol red, which has estrogen-like activity. Statistical significance was calculated using the student's T-test.

procollagen I = test: Procollagen I production by fibroblasts (slot blot); format: cell-based, human; conditions: positive control, head says (0.01%)
Procedure: This example measured production of procollagen I by fibroblasts in response to treatment with gum mastic in solvent solutions, as well as control solutions.
Gum mastic solubilized in ethanol solvent (“gum mastic”), and obtained from Sigma were tested.
Neonatal human dermal fibroblasts were purchased from Clonetics Corp., San Diego, Calif. All materials for cell culture were purchased from Life Technologies, NY and used in passages 5-10. Cells were seeded at a density of approximately 7,500/well in the inner 48 wells of a 96-well plate in a medium containing DMEM (Dulbecco's Modified Eagle's Medium), high-glucose supplemented with 2 mM L-glutamine, 10% fetal bovine serum, and antibiotic and antimycotic solutions). Cells were then grown to confluence for 2 days. At confluence, the medium was removed and cells were washed with serum-free DMEM, and each well dosed with 200 μl of a solution of gum mastic in serum-free DMEM. Each dosing was replicated in the total of six wells. […]
The membrane was stained until color developed and the reaction stopped with 2 washes for 10 minutes in tap water. […] Blot was scanned on Bio-Rad GS-700 Image Analysis densitometer and volume (OD*mm^2) of color/slot determined using molecular analysis software. Fold increase was calculated as a ratio of densitometer reading for cells treated with a gum mastic concentration over control.

[1] = test system: glycosaminoglycan synthesis; test: Glycosaminoglycan synthesis; format: cell-based; conditions: positive control, concentration not given

Q: How did the “% Reduction” value (human sebocytes) turn out when O=S1(=O)OC(c2ccc(O)cc2)(c2ccc(O)cc2)c2ccccc21 [Phenol Red] was run?
A: Its value is 29.1%.

Q: For TGF-b, which “Fold increase over control” value (procollagen I) is on record?
A: Its value is 1.4 fold.

Q: And the “Average OD Reading” value (procollagen I; densitometer volume OD*mm^2, control 5400.5)?
A: Its value is 7499.8.

Q: And the “Fold increase over control” value [1]?
A: The value was 1.4 fold.

Q: And the “Average OD Reading” value ([1]; control 4531.8)?
A: The value was 6382.3.

Source: patent US6623728B2, “Cosmetic skin care compositions and containing gum mastic” (Unilever Home & Personal Care USA Division of Conopco, Inc., priority 2000, dated 2003)
